From patent US20220056044A1, “TRICYCLIC COMPOUNDS AS STING AGONISTS, AND PREPARATION METHODS AND MEDICINAL USES THEREOF” (Jiangsu Hengrui Medicine Co., Ltd., priority 2018, published 2022)
pEC50: −log10 of the molar value.

Assays:
[1] = target: T1, hSTING R232 c-terminal domain (Homo sapiens, UniProt Q86WV6, H232R); assay: Thermal shift assay for measuring the relative binding affinity to hSTING R232 c-terminal domain; details: purified hSTING R232 (aa154-342), SYPRO Orange, Tm minus mean Tm of negative control
T1 construct: Purified hSTING R232 (aa154-342)
T1 sequence (Q86WV6 154-342 H232R): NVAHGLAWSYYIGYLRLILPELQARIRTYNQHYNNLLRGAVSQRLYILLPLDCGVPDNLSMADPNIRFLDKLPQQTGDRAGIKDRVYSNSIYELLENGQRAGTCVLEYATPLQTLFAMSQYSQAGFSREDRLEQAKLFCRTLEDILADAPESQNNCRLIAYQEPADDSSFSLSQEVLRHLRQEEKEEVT
Protocol: Thermal shift assay for measuring the relative binding affinity to hSTING R232 c-terminal domain.
From each of the 10 mM stock solutions of compounds in DMSO, dilutions are made to create samples with three concentrations 10 mM, 5 mM, and 2.5 mM. From these dilutions a final 50-fold dilution is made into assay buffer, giving concentrations of 200 μM, 100 μM, and 50 μM. From each of the buffer dilutions, 5 μL is added to the 384 well assay plate. A positive control is setup with cGAMP using the same dilution scheme as the ligands. A baseline thermal shift for the negative control is determined using buffer and 2% DMSO.
An aliquot of protein is thawed on ice and SYPRO orange reagent is brought to room temperature. The 5000×SYPRO orange stock is diluted in assay buffer to a concentration of 10×. Protein is diluted to a concentration of 10 μM in the prepared buffer/dye solution. Five micro-liters of protein/buffer/dye solution is added to each of the sample and control wells, and the plate is sealed with the provided films. The plate is centrifuged for 5 min at 20° C. at 1000 rpm.
On the Light Cycler instrument, measurements are made over a temperature gradient from 20° C. to 99° C. at 0.07° C./s and data acquisitions collected at a rate of 8/° C. are used to measure the change in fluorescence as a function of temperature. Data analysis is performed using the Roche Light Cycler Software to determine the melting temperature (Tm ° C.) of each sample. A mean Tm ° C. for the negative control is calculated and subtracted from each of the samples to generate the ΔTm ° C. values for each of the ligands.
The relative binding affinity to hSTING c-terminal domain of the compounds of the present invention was determined by the above assay, and ΔTm ° C. values are shown in the following Table 3.

[2] = target: T2, STING in THP1-Dual KI-hSTING-R232 cells (Homo sapiens, UniProt Q86WV6, H232R); assay: Human THP1 reporter cell assay (IRF luciferase reporter); format: cell-based; details: 24 hours incubation
T2 construct: host or cells: THP1-Dual KI-hSTING-R232 cells
T2 sequence (Q86WV6 whole entry H232R): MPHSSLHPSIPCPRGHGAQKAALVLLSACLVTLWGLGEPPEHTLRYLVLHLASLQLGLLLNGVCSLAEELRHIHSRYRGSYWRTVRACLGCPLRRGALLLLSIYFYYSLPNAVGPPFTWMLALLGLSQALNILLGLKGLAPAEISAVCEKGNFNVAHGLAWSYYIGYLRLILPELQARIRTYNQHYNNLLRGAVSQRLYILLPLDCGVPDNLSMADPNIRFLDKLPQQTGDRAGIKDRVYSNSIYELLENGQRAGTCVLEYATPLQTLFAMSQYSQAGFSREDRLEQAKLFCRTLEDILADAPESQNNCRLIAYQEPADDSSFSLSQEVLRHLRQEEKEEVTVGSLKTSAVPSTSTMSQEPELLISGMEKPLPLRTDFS
Protocol: Test Example 2. Human THP1 Reporter Cell Assay
1. Human THP1-Dual KI-hSTING-R232 Cells (InvivoGen, Cat. #thpd-r232)
Activation of STING in THP1-Dual KI-hSTING-R232 cells was determined by measuring the luminescence signal resulting from the expression of the IRF luciferase reporter gene. All reagent preparation and assay procedures were conducted according to the protocols provided by InvivoGen. In brief, test compounds and cells (1×10^5 cells per well) were dispensed into 96-well plates with a final volume per well of 150 μl. Plates were incubated in a humidified, 5% CO2 incubator at 37° C. for 24 hours. The expression level of the reporter gene was measured by transferring 20 μl of the supernatant to a non-transparent 96-well plate to which 50 μl of QUANTI-LUC was dispensed into each well. The resulting luminescence signal was immediately read using a TECAN plate reader. The background luminescence signal from media was subtracted. The fold induction effect of the luminescence signal at each compound concentration was determined relative to controls that lack compound treatment. The plot of fold induction effect versus the log of compound concentration was fit in GraphPad Prism with a 4-parameter concentration response equation to calculate EC50 and Emax.
Activation of STING in THP1 of the compounds in the present invention was determined by the above assay, and EC50 values are shown in the following Table 4.

[3] = system: Human PBMC cells; assay: IFNβ secretion from human PBMC (ELISA); format: cell-based; details: 5 hours incubation, IFNβ in supernatant by ELISA
Protocol: Test Example 3. IFNβ Secretion from Human PBMC
1. Human PBMC cells (STEMCELL Technologies)
Cryopreserved peripheral blood human mononuclear cells (PBMCs) were rapidly thawed and resuspended in Lymphocyte Media and centrifuged at 500×g for 5 minutes. The supernatant was removed and the cell pellets were gently resuspended in cell culture and compound dilution media. Then the cells were plated in a 96-well format at a concentration of 1.5×10^5 per well. The test compounds, at varying concentrations, or vehicle control (<0.3% DMSO) were mixed with the cells giving a final volume of 150 μl per well. The plates were incubated in a humidified, 5% CO2 incubator at 37° C. for 5 hours. After incubation, the human IFNβ in the supernatant and the IFNβ standard controls were measured using human IFNβ Quantikine ELISA kit according to the manufacturer's protocol. The absorbance at 450 nm was measured with Infinite M1000 plate reader and corrected by background reading at 540 nm of each well. The concentration of IFNβ secreted was calculated based on the standard curves. The plot of IFNβ concentration versus the log of compound concentration was fit in GraphPad Prism with a 4-parameter concentration response equation to calculate EC50 and Emax (see Table 5).

SMILES	ΔTm at 100 µM [1] [°C]	pEC50 [2]	EC50 [3] [µM]
CCn1nc(C)cc1C(=O)Nc1nc2cc(C(N)=O)cc3c2n1C(CC=CCC1CCCOc2cc(C(N)=O)cc4nc(NC(=O)c5cc(C)nn5CC)n1c24)CCCO3 (centres unmarked) [Example 7, 10,10″-(but-2-ene-1,4-diyl)bis(1-(1-ethyl-3-methyl-1H-pyrazole-5-carboxamido)-7,8,9,10-tetrahydro-6-oxa-2,10a-diazacycloocta[cd]indene-4-carboxamide)]	6.2		
CCn1nc(C)cc1C(=O)Nc1nc2cc(C(N)=O)cc3c2n1[C@@H](C/C=C\C[C@H]1COc2cc(C(N)=O)cc4nc(NC(=O)c5cc(C)nn5CC)n1c24)CO3 [Example 2, (3S,3″S)-3,3″-((Z)-but-2-ene-1,4-diyl)bis(2-(1-ethyl-3-methyl-1H-pyrazole-5-carboxamido)-3,4-dihydro-5-oxa-1,2a-diazaacenaphthylene-7-carboxamide)]	12.2	8.22	0.026
CCn1nc(C)cc1C(=O)Nc1nc2cc(C(=O)O)cc3c2n1[C@@H](C/C=C/C[C@H]1COc2cc(C(=O)O)cc4nc(NC(=O)c5cc(C)nn5CC)n1c24)CO3 [Example 3, (3S,3″S)-3,3″-((E)-but-2-ene-1,4-diyl)bis(2-(1-ethyl-3-methyl-1H-pyrazole-5-carboxamido)-3,4-dihydro-5-oxa-1,2a-diazaacenaphthylene-7-carboxylic acid)]	5.9		
CCn1nc(C)cc1C(=O)Nc1nc2cc(C(N)=O)cc3c2n1[C@@H](C/C=C\C[C@H]1CN(C)c2cc(C(N)=O)cc4nc(NC(=O)c5cc(C)nn5CC)n1c24)CN3C [Example 10, (4S,4′S)-4,4′-((Z)-but-2-ene-1,4-diyl)bis(2-(1-ethyl-3-methyl-1H-pyrazole-5-carboxamido)-6-methyl-5,6-dihydro-4H-imidazo[1,5,4-de]quinoxaline-8-carboxamide)]		7.92	0.05
CCn1nc(C)cc1C(=O)Nc1nc2cc(C(N)=O)cc3c2n1[C@@H](C/C=C\C[C@H]1CN(CCCOC)c2cc(C(N)=O)cc4nc(NC(=O)c5cc(C)nn5CC)n1c24)CN3C [Example 14, (S)-4-((Z)-4-((S)-8-carbamoyl-2-(1-ethyl-3-methyl-1H-pyrazole-5-carboxamido)-6-(3-methoxypropyl)-5,6-dihydro-4H-imidazo[1,5,4-de]quinoxalin-4-yl)but-2-en-1-yl)-2-(1-ethyl-3-methyl-1H-pyrazole-5-carboxamido)-6-methyl-5,6-dihydro-4H-imidazo[1,5,4-de]quinoxaline-8-carboxamide]		7.22	
CCn1nc(C)cc1C(=O)Nc1nc2cc(C(N)=O)cc3c2n1[C@@H](C/C=C\C[C@H]1CN(CCCOC)c2cc(C(N)=O)cc4nc(NC(=O)c5cc(C)nn5CC)n1c24)CN3CCCOC [Example 12, (4S,4′S)-4,4′-((Z)-but-2-ene-1,4-diyl)bis(2-(1-ethyl-3-methyl-1H-pyrazole-5-carboxamido)-6-(3-methoxypropyl)-5,6-dihydro-4H-imidazo[1,5,4-de]quinoxaline-8-carboxamide)]		6.85	0.058
CCn1nc(C)cc1C(=O)Nc1nc2cc(C(N)=O)cc3c2n1[C@@H](C/C=C/C[C@H]1COc2cc(C(N)=O)cc4nc(NC(=O)c5cc(C)nn5CC)n1c24)CO3 [Example 1, (3S,3″S)-3,3″-((E)-but-2-ene-1,4-diyl)bis(2-(1-ethyl-3-methyl-1H-pyrazole-5-carboxamido)-3,4-dihydro-5-oxa-1,2a-diazaacenaphthylene-7-carboxamide)]	14.6	6.70	0.22
CCn1nc(C)cc1C(=O)Nc1nc2cc(C(N)=O)cc3c2n1C(CC=CC[C@H]1COc2cc(C(N)=O)cc4nc(NC(=O)c5cc(C)nn5CC)n1c24)CCCO3 (stereo partly drawn) [Example 8, 10-(4-((S)-7-carbamoyl-2-(1-ethyl-3-methyl-1H-pyrazole-5-carboxamido)-3,4-dihydro-5-oxa-1,2a-diazaacenaphthylen-3-yl)but-2-en-1-yl)-1-(1-ethyl-3-methyl-1H-pyrazole-5-carboxamido)-7,8,9,10-tetrahydro-6-oxa-2,10a-diazacycloocta[cd]indene-4-carboxamide]		5.19	
CCn1nc(C)cc1C(=O)Nc1nc2cc(C(N)=O)cc3c2n1[C@@H](C/C=C/C[C@H]1CN(C)c2cc(C(N)=O)cc4nc(NC(=O)c5cc(C)nn5CC)n1c24)CN3C [Example 9, (4S,4′S)-4,4′-((E)-but-2-ene-1,4-diyl)bis(2-(1-ethyl-3-methyl-1H-pyrazole-5-carboxamido)-6-methyl-5,6-dihydro-4H-imidazo[1,5,4-de]quinoxaline-8-carboxamide)]		7.27	0.14
CCn1nc(C)cc1C(=O)Nc1nc2cc(C(N)=O)cc3c2n1[C@@H](C/C=C/C[C@H]1CN(CCCOC)c2cc(C(N)=O)cc4nc(NC(=O)c5cc(C)nn5CC)n1c24)CN3CCCOC [Example 11, (4S,4′S)-4,4′-((E)-but-2-ene-1,4-diyl)bis(2-(1-ethyl-3-methyl-1H-pyrazole-5-carboxamido)-6-(3-methoxypropyl)-5,6-dihydro-4H-imidazo[1,5,4-de]quinoxaline-8-carboxamide)]		6.82	0.19
CCn1nc(C)cc1C(=O)Nc1nc2cc(C(N)=O)cc3c2n1[C@@H](C/C=C/C[C@H]1CN(CCCOC)c2cc(C(N)=O)cc4nc(NC(=O)c5cc(C)nn5CC)n1c24)CN3C [Example 13, (S)-4-((E)-4-((S)-8-carbamoyl-2-(1-ethyl-3-methyl-1H-pyrazole-5-carboxamido)-6-(3-methoxypropyl)-5,6-dihydro-4H-imidazo[1,5,4-de]quinoxalin-4-yl)but-2-en-1-yl)-2-(1-ethyl-3-methyl-1H-pyrazole-5-carboxamido)-6-methyl-5,6-dihydro-4H-imidazo[1,5,4-de]quinoxaline-8-carboxamide]		6.74	
CCn1nc(C)cc1C(=O)Nc1nc2cc(C(N)=O)cc3c2n1[C@@H](C/C=C/C[C@H]1COc2cc(C(N)=O)cc4nc(NC(=O)C(C)(C)C)n1c24)CO3 [Example 4, (S)-3-((E)-4-((S)-7-carbamoyl-2-(1-ethyl-3-methyl-1H-pyrazole-5-carboxamido)-3,4-dihydro-5-oxa-1,2a-diazaacenaphthylen-3-yl)but-2-en-1-yl)-2-pivalamido-3,4-dihydro-5-oxa-1,2a-diazaacenaphthylene-7-carboxamide]	7.5	4.94	
CCn1nc(C)cc1C(=O)Nc1nc2cc(C(N)=O)cc3c2n1[C@@H](CCCC[C@H]1COc2cc(C(N)=O)cc4nc(NC(=O)c5cc(C)nn5CC)n1c24)CO3 [Example 5, (3S,3″S)-3,3″-(butane-1,4-diyl)bis(2-(1-ethyl-3-methyl-1H-pyrazole-5-carboxamido)-3,4-dihydro-5-oxa-1,2a-diazaacenaphthylene-7-carboxamide)]	9.1	6.37	
